Results published in US9434734B2, “Substituted pyrazoloquinazolinones and pyrroloquinazolinones as allosteric modulators of group II metabotropic glutamate receptors” (Domain Therapeutics, priority 2012, dated 2016).
Counter-ions that a name gives are not always drawn.

Q: Which melting point does the source give for `Cn1c(=O)c2ccc(-c3ccc(F)cc3)cc2n2nc(-c3ccccc3)cc12` [Example 12, 8-(4-Fluoro-phenyl)-4-methyl-2-phenyl-4H-pyrazolo[1,5-a]quinazolin-5-one] here?
A: 178 to 180 °C

Q: For `CCn1c(=O)c2ccc(-c3ccc(N)nc3)cc2n2nc(CCOC)cc12.Cl`, which melting point is on record?
A: 163 to 170 °C

Q: For `COc1ccc(-c2ccc3c(=O)n(C)c4cc(-c5ccccc5)nn4c3c2)cc1` [Example 7, 8-(4-Methoxy-phenyl)-4-methyl-2-phenyl-4H-pyrazolo[1,5-a]quinazolin-5-one], which melting point is on record?
A: > 250 °C

Q: For `CCn1c(=O)c2ccc(-c3cc(C)nc(C)c3)cc2n2nc(CCOC)cc12.Cl`, which melting point is on record?
A: 173 to 180 °C

Q: With `Cl.Cn1c(=O)c2ccc(-c3ccc(N)nc3)cc2n2nc(-c3ccccc3)cc12` [Example 2, 8-(6-Amino-pyridin-3-yl)-4-methyl-2-phenyl-4H-pyrazolo[1,5-a]quinazolin-5-one] as the compound, how does the melting point read?
A: 241 to 244 °C

Q: With `Cc1ncccc1-c1ccc2c(=O)n(C)c3cc(-c4cnn(C)c4)nn3c2c1.Cl` as the compound, how does the melting point read?
A: 169 to 187 °C

Q: For `Cn1c(=O)c2ccc(-c3nn[nH]n3)cc2n2nc(-c3ccccc3)cc12` [Example 22, 4-Methyl-2-phenyl-8-(2H-tetrazol-5-yl)-4H-pyrazolo[1,5-a]quinazolin-5-one], which melting point is on record?
A: > 250 °C

Q: For `CCCn1c(=O)c2ccc(-c3cc(C)nc(C)c3)cc2n2nc(CCOC)cc12.Cl`, which melting point is on record?
A: 120 to 125 °C

Q: For `Cc1cc(-c2cc3n(C)c(=O)c4ccc(-c5cccnc5C)cc4n3n2)cc(C)n1` (as salt: salt) [Example 113, 2-(2,6-Dimethyl-pyridin-4-yl)-4-methyl-8-(2-methyl-pyridin-3-yl)-4H-pyrazolo[1,5-a]quinazolin-5-one], which melting point is on record?
A: > 250 °C

Q: For `Cc1cc(-c2cc3n(C)c(=O)c4ccc(-c5ccc(N)nc5)cc4n3n2)cc(C)n1` (as salt: salt) [Example 112, 8-(6-Amino-pyridin-3-yl)-2-(2,6-dimethyl-pyridin-4-yl)-4-methyl-4H-pyrazolo[1,5-a]quinazolin-5-one], which melting point is on record?
A: > 250 °C

Q: For `Cn1c(=O)c2ccc(-c3cccc(-c4nn[nH]n4)c3)cc2n2nc(C3CCOCC3)cc12` (as salt: sodium) [Example 96, 4-Methyl-2-(tetrahydro-pyran-4-yl)-8-[3-(2H-tetrazol-5-yl)-phenyl]-4H-pyrazolo[1,5-a]quinazolin-5-one], which melting point is on record?
A: 219 to 227 °C

Q: With `Cc1cc(-c2cc3n(C)c(=O)c4ccc(-c5cnccc5C)cc4n3n2)cc(C)n1` (as salt: salt) [Example 119, 2-(2,6-Dimethyl-pyridin-4-yl)-4-methyl-8-(4-methyl-pyridin-3-yl)-4H-pyrazolo[1,5-a]quinazolin-5-one] as the compound, how does the melting point read?
A: > 250 °C

Q: With `Cc1cc(-c2ccc3c(=O)n(C)c4cc(-c5cc(C)nc(C)c5)nn4c3c2)cc(C)n1` (as salt: salt) [Example 114, 2,8-Bis-(2,6-dimethyl-pyridin-4-yl)-4-methyl-4H-pyrazolo[1,5-a]quinazolin-5-one] as the compound, how does the melting point read?
A: > 250 °C

Q: Which melting point does the source give for `Cc1ncccc1-c1ccc2c(=O)n(C)c3cc(C4CCOCC4)nn3c2c1.Cl` here?
A: 167 to 169 °C

Q: For `Cl.Cn1c(=O)c2ccc(-c3ccc(N4CCOCC4)nc3)cc2n2nc(-c3ccccc3)cc12`, which melting point is on record?
A: 194 to 196 °C

Q: For `COCCc1cc2n(C)c(=O)c3ccc(-c4cc(C)nc(C)c4)cc3n2n1.Cl`, which melting point is on record?
A: 241 to 245 °C

Q: Which melting point does the source give for `Cc1cc(-c2ccc3c(=O)n(CC(F)(F)F)c4cc(C5CCOCC5)nn4c3c2)cc(C)n1.Cl` here?
A: > 250 °C

Q: For `COc1cccc(-c2ccc3c(=O)n(C)c4cc(-c5ccccc5)nn4c3c2)c1` [Example 11, 8-(3-Methoxy-phenyl)-4-methyl-2-phenyl-4H-pyrazolo[1,5-a]quinazolin-5-one], which melting point is on record?
A: 182 to 185 °C

Q: For `COCc1cc2n(C)c(=O)c3ccc(-c4ccc(N)nc4)cc3n2n1.Cl`, which melting point is on record?
A: 235 to 242 °C

Q: For `CCCn1c(=O)c2ccc(-c3ccc(N)nc3)cc2n2nc(CCOC)cc12.Cl`, which melting point is on record?
A: 96 to 102 °C

Q: For `Cn1c(=O)c2ccc(-c3cccnc3C(F)(F)F)cc2n2nc(-c3ccnc(C(F)(F)F)c3)cc12` [Example 142, 4-Methyl-2-(2-trifluoromethyl-pyridin-4-yl)-8-(2-trifluoromethyl-pyridin-3-yl)-4H-pyrazolo[1,5-a]quinazolin-5-one], which melting point is on record?
A: > 250 °C

Q: Which melting point does the source give for `CCc1ncccc1-c1ccc2c(=O)n(C)c3cc(-c4cc(C)nc(C)c4)nn3c2c1` (as salt: salt) [Example 120, 2-(2,6-Dimethyl-pyridin-4-yl)-8-(2-ethyl-pyridin-3-yl)-4-methyl-4H-pyrazolo[1,5-a]quinazolin-5-one] here?
A: > 250 °C

Q: For `Cl.Cn1c(=O)c2ccc(-c3ccncc3)cc2n2nc(C3CCOCC3)cc12`, which melting point is on record?
A: 218 to 223 °C

Q: For `Cc1cc(N)nc(C)c1-c1ccc2c(=O)n(C)c3cc(-c4ccccc4)nn3c2c1.Cl`, which melting point is on record?
A: > 250 °C

Q: Which melting point does the source give for `Cn1c(=O)c2ccc(-c3cn[nH]c3)cc2n2nc(C3CCOCC3)cc12` [Example 87, 4-Methyl-8-(1H-pyrazol-4-yl)-2-(tetrahydro-pyran-4-yl)-4H-pyrazolo[1,5-a]quinazolin-5-one] here?
A: > 250 °C

Q: Which melting point does the source give for `Cc1ncccc1-c1ccc2c(=O)n(C)c3cc(-c4cccnc4)nn3c2c1` (as salt: salt) [Example 134, 4-Methyl-8-(2-methyl-pyridin-3-yl)-2-pyridin-3-yl-4H-pyrazolo[1,5-a]quinazolin-5-one] here?
A: > 250 °C

Q: For `Cl.Cn1c(=O)c2ccc(-c3ccc(N)nn3)cc2n2nc(C3CCOCC3)cc12`, which melting point is on record?
A: 140 to 146 °C

Q: Which melting point does the source give for `Cc1ccc(-c2ccc3c(=O)n(C)c4cc(C5CCOCC5)nn4c3c2)c(C)n1.Cl` here?
A: 231 to 235 °C

Q: For `Cc1cncc(-c2ccc3c(=O)n(C)c4cc(-c5cc(C)nc(C)c5)nn4c3c2)c1` (as salt: salt) [Example 118, 2-(2,6-Dimethyl-pyridin-4-yl)-4-methyl-8-(5-methyl-pyridin-3-yl)-4H-pyrazolo[1,5-a]quinazolin-5-one], which melting point is on record?
A: > 250 °C

Q: For `Cc1cc(-c2cc3n(C)c(=O)c4ccc(-c5ccn[nH]5)cc4n3n2)cc(C)n1.Cl`, which melting point is on record?
A: > 250 °C

Q: For `Cc1cc(-c2cc3n(C)c(=O)c4ccc(-c5cc(C)nc(C)c5)cc4n3n2)ccn1` (as salt: salt) [Example 133, 8-(2,6-Dimethyl-pyridin-4-yl)-4-methyl-2-(2-methyl-pyridin-4-yl)-4H-pyrazolo[1,5-a]quinazolin-5-one], which melting point is on record?
A: > 250 °C

Q: Which melting point does the source give for `Cc1cc(-c2cc3n(C)c(=O)c4ccc(-c5cccnc5)cc4n3n2)cc(C)n1` (as salt: salt) [Example 116, 2-(2,6-Dimethyl-pyridin-4-yl)-4-methyl-8-pyridin-3-yl-4H-pyrazolo[1,5-a]quinazolin-5-one] here?
A: > 250 °C

Q: Which melting point does the source give for `Cc1cc(-c2cc3n(C)c(=O)c4ccc(-c5cccnc5C)cc4n3n2)ccn1` (as salt: salt) [Example 132, 2-(2-methyl-pyridin-4-yl)-4-methyl-8-(2-methyl-pyridin-3-yl)-4H-pyrazolo[1,5-a]quinazolin-5-one] here?
A: > 250 °C

Q: Which melting point does the source give for `Cl.Cn1c(=O)c2ccc(-c3ccc(N4CCCCC4)nc3)cc2n2nc(-c3ccccc3)cc12` here?
A: 200 to 203 °C

Q: With `Cn1c(=O)c2ccc(-c3cccc(-c4nn[nH]n4)c3)cc2n2nc(-c3ccccc3)cc12` (as salt: sodium) [Example 36, 4-Methyl-2-phenyl-8-[3-(2H-tetrazol-5-yl)-phenyl]-4H-pyrazolo[1,5-a]quinazolin-5-one] as the compound, how does the melting point read?
A: > 250 °C
